In PubChem BioAssay (NCI):
Where “and” joins values, the source holds several entries; their conditions need not be identical. Identical values can stand only once.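 Where inhibition never reached the appropriate level, the endpoint shown equals the highest concentration tested. Otherwise, values were interpolated linearly from a five-concentration, 48-hour dose response in 96-well plates. GI50 marks 50% less growth. TGI is the concentration that stops growth completely.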

Legend:
Experiment in all cases: NCI anticancer screen, dose series, 48 h
NCI-H226 lung = system: NCI-H226 lung
OVCAR-8 ovarian = system: OVCAR-8 ovarian
A549 NSCLC = system: A549 NSCLC
BT-549 breast = system: BT-549 breast
U251 CNS = system: U251 CNS
UACC-257 melanoma = system: UACC-257 melanoma
NCI-H522 lung = system: NCI-H522 lung
MCF7 breast = system: MCF7 breast

Compound | GI50 (NCI-H226 lung) | TGI (NCI-H226 lung) | GI50 (OVCAR-8 ovarian) | TGI (OVCAR-8 ovarian) | GI50 (A549 NSCLC) | TGI (A549 NSCLC) | GI50 (BT-549 breast) | TGI (BT-549 breast) | GI50 (U251 CNS) | TGI (U251 CNS) | GI50 (UACC-257 melanoma) | TGI (UACC-257 melanoma) | GI50 (NCI-H522 lung) | TGI (NCI-H522 lung) | TGI (MCF7 breast) | GI50 (MCF7 breast)
O=S(=O)(NCCO)c1cc[c]([Sb](=[O])([OH])[OH])cc1 | > 100 µM | > 100 µM | > 100 µM | > 100 µM | > 100 µM | > 100 µM | > 100 µM | > 100 µM | > 100 µM | > 100 µM | > 100 µM | > 100 µM | > 100 µM | > 100 µM |  | 
Cc1cc2c(=O)[nH]c(N)nc2nc1C |  | > 100 µM |  | > 100 µM |  | > 100 µM |  | > 100 µM |  | > 100 µM |  | > 100 µM |  | > 100 µM | > 100 µM | 
COC(=O)[C@@H](OC)[C@@H]1Cc2cc3cc(OC4CC(OC5CC(O)C(O)C(C)O5)C(O)C(C)O4)c(C)c(O)c3c(O)c2C(=O)[C@H]1OC1CC(OC2CC(OC3CC(C)(O)C(O)C(C)O3)C(O)C(C)O2)C(O)C(C)O1 (stereo not given in full) | 0.0384 µM | 0.125 µM | 0.0393 µM | > 16.5 µM | 0.0484 µM | > 16.5 µM | 0.0186 µM | 0.0974 µM | 0.0385 µM | > 16.5 µM | 0.0507 µM | 0.497 µM | 0.0358 µM | 0.172 µM | > 16.5 µM | 0.0275 µM
N#C/C(=C\c1cccc2cnccc12)N1N=NC2C=CC=CC21 (stereo not given) | 3.95 µM | > 100 µM | 3.32 µM | > 100 µM | 3.02 µM | > 100 µM | 2.97 µM | > 100 µM | 3.88 µM | > 100 µM | 4.54 µM | > 100 µM | 2 µM | > 100 µM | > 100 µM | 0.557 µM
CC1(C)CC(=O)c2c(ccc(C(=O)C[C@@H](N)CO)c2N)O1 | 0.871 µM | > 37.4 µM | 1.08 µM | > 69.6 µM | 1.42 µM | > 100 µM | 1.12 µM | 11.9 µM | 0.328 µM | > 100 µM | 3.25 µM | 47.8 µM | 0.919 µM | 15.3 µM | > 52.5 µM | 0.399 µM
CCN(CC)CCCNc1[nH]ncc2c(C)c3nc4ccccc4c3cc12 | 0.566 µM | 2.5 µM and 2.09 µM | 0.926 µM | 4.85 µM and 4.58 µM | 0.398 µM | 2.94 µM and 14.2 µM | 2.08 µM | 2.75 µM and 5.17 µM | 0.428 µM | 1.71 µM and 3.57 µM | 1.4 µM | 7.05 µM and 6.14 µM | 0.217 µM | 1.15 µM and 1.14 µM | 0.756 µM and 5.9 µM | 0.219 µM
COc1ccc(-c2nc(-c3nc4ccc(C(F)(F)F)cc4[nH]3)c3ccccn23)cc1 |  |  | 22.7 µM | > 100 µM | 28.5 µM | > 100 µM | > 100 µM | > 100 µM | > 100 µM | > 100 µM | > 100 µM | > 100 µM | > 100 µM | > 100 µM | > 100 µM | 26.3 µM
COc1ccc(Oc2cc(NCCC(F)(F)F)c3ncc(-c4ccc(C(=O)NC5CC5)c(C)c4)n3n2)c(F)c1F | 7.34 µM | 68.8 µM | 0.0738 µM | 26.9 µM | 0.902 µM | > 59.2 µM | 2.14 µM | 42.1 µM | 0.597 µM | 57.8 µM | 9.26 µM | 59.5 µM | 0.381 µM | > 64.8 µM | > 100 µM | 0.822 µM
Nc1nc(-c2cc(-c3cccc4ccccc34)nc(N)n2)cc(-c2cccc3ccccc23)n1 |  | > 100 µM |  | > 100 µM |  | > 100 µM |  | > 100 µM |  | > 100 µM |  | > 100 µM |  | > 100 µM | > 100 µM | 
CCCCCSC1C2C(=O)C(Br)=CC13CCNc1c(O)c4c5c(c13)=[N+]2CCC=5C=N4 (stereo not given) | 3.15 µM | 6.32 µM |  |  | 2.88 µM | 5.8 µM | 2.61 µM | 4.96 µM | 2.56 µM | 5.67 µM | 0.385 µM | 1.2 µM | 0.452 µM | 1.26 µM | 0.883 µM | 0.341 µM
COC(=O)/C(=C\c1c(-c2ccccc2)[nH]c2ccccc12)S(C)(=O)=O | 4.99 µM | 64.5 µM | 6.29 µM | > 100 µM | 5.26 µM | 98.4 µM | 4.29 µM | 78.8 µM | 3.62 µM | 18.3 µM | 11.2 µM | 25.9 µM | 3.06 µM | 14.5 µM | 18.2 µM | 2.92 µM
C[n+]1c(/C=C/c2ccc(/C=N/NC(=O)c3ccc(C(=O)N/N=C/c4ccc(/C=C/c5cn6ccccc6[n+]5C)cc4)cc3)cc2)cn2ccccc21 |  |  |  | > 100 µM |  | > 100 µM |  | > 100 µM |  | > 100 µM |  | > 100 µM |  |  | > 100 µM | 
Cc1cn2c(/C=N/N=C(N)N)c(-c3ccsc3)nc2s1 | 15.5 µM | 31.7 µM | 16.2 µM | 34.4 µM | 17.1 µM | 34.7 µM | 15 µM | 29.5 µM | 2.08 µM | 5.95 µM | 18.7 µM | 35 µM | 28.4 µM | > 100 µM | 14.8 µM | 3.43 µM
Cc1ccc(C)c2c(N=Nc3ccccc3[N+](=O)[O-])c(O)[nH]c12 |  |  |  |  |  | > 100 µM |  | > 100 µM |  | > 100 µM |  | > 100 µM |  | > 100 µM | > 100 µM | 
Cc1cc2c(cc1C)[n+](Cc1ccc3ccccc3n1)cn2Cc1ccc2ccccc2n1 | 1.59 µM | 4.01 µM |  |  | 2.83 µM | 13 µM | 1.32 µM | 3.2 µM | 0.926 µM | 2.2 µM | 1.23 µM | 3.18 µM | 0.704 µM | 2.47 µM |  | 
CNC(=O)c1cc2c(Oc3ccc(NC(=S)NC(=O)Cc4ccccc4)cc3F)ccnc2cc1OC | 5.36 µM | > 100 µM | > 100 µM | > 100 µM | > 48.6 µM | > 100 µM | 2.91 µM | > 28.7 µM | > 100 µM | > 100 µM | 9.5 µM | > 100 µM | 10 µM | > 100 µM | > 100 µM | > 100 µM
